Patent US10772884B2, “Sulphate salts of N-(3-(4-(3-(diisobutylamino)propyl)piperazin-1-yl)propyl)-1H-benzo[d]imidazol-2-amine, preparation thereof and use of the same” (ALZPROTECT, priority 2012, dated 2020)

Columns and labels:
[1] = long term stability (oxidation) in solid state; assay type: physicochemical; conditions: oxidation at the piperazine ring
[2] = salt formation results (physical form); assay type: physicochemical; conditions: Acid eq. added 0
Method: The hydrochloride, hydrobromide, acetate, tartrate, fumarate, malate, oxalate and sulphate salts of N-(3-(4-(3-(diisobutylamino)propyl)piperazin-1-yl)propyl)-1H-benzo[d]imidazol-2-amine were prepared according to procedures similar to those described in the previous examples or standard salt formation methods well known in the art.

With CC(C)CN(CCCN1CCN(CCCNc2nc3ccccc3[nH]2)CC1)CC(C)C [Free base, N-(3-(4-(3-(diisobutylamino)propyl)piperazin-1-yl)propyl)-1H-benzo[d]imidazol-2-amine] the long term stability [1] was “long term stability issues” and the Physical form [2] was “Amorphous powder”.
